Columns and labels:
[1] = cited from earlier work; for Cmax: oral uptake of tegafur-uracil (UFT)
[2] = test system: rat primary hepatocytes; assay: Mass spectrometry of drug metabolism in single chamber device with hepatocytes alone; details: from tegafur+uracil
Source text: (§2) Tegafur, 5-FU, and Uracil concentrations in media were quantified using an LC/MS-MS 3200 QTRAP Hybrid Triple Quadrupole Linear Ion Trap mass spectrometer (AB SCIEX, Foster City, Calif.) coupled to a 1200 Series Binary LC System (Agilent Technologies, Santa Clara, Calif.). A standard solution of each analyte was directly infused into the mass spectrometer, which was operating under negative mode with the following settings: Curtain gas (CUR) at 30.0, collision gas (CAD) at 5, IonSpray Voltage (IS) at −4500.0, the temperature (TEM) of the turbo gas in the TurbolonSpray at 400° C. and both Ion Source Gases (GS1 and GS2) at 60.0. Using Analyst software (Version 1.5, AB Sciex), a ‘Compound Optimization’ routine was performed to identify multiple reaction monitoring (MRM) precursor/product ion transition pairs for each analyte that maximizes peak intensity. The tunable MS-specific parameters for the optimization were the declustering potential (DP), the entrance potential (EP), the collision energy (CE), as well as the collision cell exit potential (CXP).
(§3) MS data acquisition for each sample was achieved by injecting 10 μL, of media through a liquid chromatographic (LC) separation phase followed by simultaneous detection of all three MRM transitions, each with a dwell time of 500 ms. The LC method utilized a Synergy Hydro-RP (reverse phase) column (150 mm×2 mm inner 4 μm 80 Å particles; Phenomenex, Torrance, Calif.), which was kept at ambient temperature. The aqueous mobile phase A was HPLC grade water with 0.1% formic acid and the organic phase B was HPLC grade methanol with 0.1% formic acid. The elution gradient was set as: 0 minutes-3% B, 3 minutes-3% B, 12 minutes-95% B, 15 minutes-95% B, 18 minutes-3% B, and 25 minutes-3% B.

[3] = test system: Rat hepatocytes; assay: MTT toxicity experiment in 96-well plates, rat hepatocytes; format: cell-based
Experimental: (§1) Toxicity experiments were performed in 96-well plates. Briefly, 96-well plates were coated with 50 μg/mL fibronectin for 1 hour at 37° C. Freshly isolated rat hepatocytes and MCF-7 cells were seeded at 50,000 cells/well in 100 μL of media and incubated overnight at 37° C., 10% CO2. Hepatocytes were seeded in hepatocyte maintenance media while MCF-7 cells were seeded in DMEM. Media was replaced and cells were exposed to tegafur or 5-FU+Uracil in Williams E media at 37° C., 10% CO2. Uracil concentration was maintained at 100 μM, while 5-FU concentration varied. After 24 hours of exposure, media were removed and cells were incubated with 0.5 mg/mL MTT reagent for 2 hours. Media were removed from the wells and 100 μL DMSO was added to each well and mixed on a shaker for 10 minutes. The absorbance was measured at 570 nm and IC-50 values were obtained using Sigmaplot software with a sigmoidal 4-parameter fit.

[4] = test system: MCF-7 cells; assay: MTT toxicity experiment in 96-well plates, MCF-7; format: cell-based, human
Experimental: as §1

[5] = test system: MCF-7 cells co-cultured with rat primary hepatocytes; assay: LDH release, hepatocyte/MCF-7 co-culture in two-chamber microfluidic device; format: cell-based, human; details: MCF-7 exposure to 5-FU produced by metabolic conversion of tegafur, 24 hours
Source text: Rat primary hepatocytes and human breast cancer cells (MCF-7) were co-cultured in the device of Example 1 to create a hepatocyte-cancer model for drug screening. In the two-chamber device, intercellular communication between hepatocytes and cancer cells is achieved without any flow within the devices. In the two-chamber device, both cell types were independently seeded into their respective chambers in the device using inlet ports on fibronectin-coated devices. Rat primary hepatocytes and MCF-7 cells were seeded into the first (bottom) and second (top) chambers, respectively. Control monocultures were seeded in a single chamber device. The co-culture model created provides a microenvironment with cells cultured in close proximity and relatively small volume. Co-culture of hepatocytes and MCF-7 cells was compared in 12-well plates against a two-chamber device. […]
LDH in the supernatant was evaluated using CytoTox 96 Non-Radioactive Cytotoxicity Assay (Promega Cat No. G1780). […]
At the end of incubation, 50 μL stop solution was added and absorbance measured at 490 nm.
LDH from culture supernatant is normalized as LDH from cultures exposed to 100 μM tegafur+100 μM uracil to LDH from cultures exposed to vehicle control. […] Percentage cell death was calculated as LDH in media/LDH in 10,000 MCF-7 cells.

[6] = test system: rat primary hepatocytes; details: 24 h, 100 μM
Source text: as §2, §3

[7] = 100 μM, inferred from IC-50 values

Row | decrease of concentration within the media [6] | SMILES | half-life in circulation in the human body [1] | fraction of 5-FU produced cleared by DPD activity ([1]; human) | Cmax ([1]; human) | temporal profile of 5-FU production [2] | toxicity to hepatocytes at 100 μM [3, 7] | IC50 ([3]; Hepatocyte, rat hepatocytes, 24 hours exposure, MTT, uracil 100 μM where present) | toxicity to MCF-7 cells at 100 μM [4, 7] | IC50 ([4]; Homo sapiens, MCF7, MCF-7, 24 hours exposure, MTT, uracil 100 μM where present) | MCF-7 cell death (LDH in media/LDH in 10,000 MCF-7 cells) [5]
1 |  | O=c1[nH]cc(F)c(=O)[nH]1 [5-FU, 5-fluorouracil] | 30 min | ~80% | 0.847 µM | increase in production up to 8 hours and a subsequent decrease |  |  |  |  | 
2 | ~75% | O=c1[nH]c(=O)n(C2CCCO2)cc1F (stereo not drawn) [Tegafur] |  |  | 31.2 µM |  | not toxic | > 1200 µM | not toxic | 340 µM | 12.4±1.6%
3 | ~75% | O=c1cc[nH]c(=O)[nH]1 [uracil, Uracil] |  |  |  |  |  |  |  |  | 
